# Test results: patent US10988445B2 (AstraZeneca AB, priority 2015, dated 2021)
# Test system: human TH17 cells
# Assay: Inhibition of IL-17 release from human TH17 cells
# Format: cell-based
# Conditions: Homo sapiens, 96 h, isolated human TH17 cells, 4 days culture, IL-17A by HTRF; read-out: pIC50 IL-17 release (converted)
# Source text: Inhibition of IL-17 Release from Human TH17 Cells (IL-17 Release)
# This test is designed to screen compounds for their inhibitory effect on the release of IL-17 from isolated and cultured human TH17 cells.
# Peripheral blood mononuclear cells (PBMC) were isolated from heparin treated human whole blood fromhealthy donors by density gradient centrifugation. TH17 cells (CD4+CXCR3-CCR6+) were enriched using a human TH17 Cell Enrichment Kit (Stemcell Technologies) according to the manufacturer's protocol. […] On day 4 supernatants were collected and IL-17A was measured using a Human IL-17 HTRF Assay kit (Cisbio Bioassays) according to the manufacturer's protocol. […] Results
row,Compound,IC50
1,"NC(C(=O)N1Cc2cc(S(=O)(=O)CC3CC3)ccc2C1C(=O)Nc1ccc(C(O)(C(F)(F)F)C(F)(F)F)cc1)C1CC1 (centres unmarked) [Example 211, 2-[Amino(cyclopropyl)acetyl]-5-[(cyclopropylmethyl)sulfonyl]-N-[4-(1,1,1,3,3,3-hexafluoro-2-hydroxypropan-2-yl)phenyl]-2,3-dihydro-1H-isoindole-1-carboxamide]",200 nM
2,"COC1(C(=O)N2Cc3cc(S(=O)(=O)CC4CC4)ccc3C2C(=O)Nc2ccc(C(O)(C(F)(F)F)C(F)(F)F)cc2)CC1 (centres unmarked) [Example 212, 5-[(Cyclopropylmethyl)sulfonyl]-N-[4-(1,1,1,3,3,3-hexafluoro-2-hydroxypropan-2-yl)phenyl]-2-[(1-methoxycyclopropyl)carbonyl]-2,3-dihydro-1H-isoindole-1-carboxamide]",15.8 nM
3,"COC(=O)N1Cc2cc(S(=O)(=O)CC3CC3)ccc2C1C(=O)Nc1ccc(C(O)(C(F)(F)F)C(F)(F)F)cc1 (centres unmarked) [Example 213, Methyl 5-[(cyclopropylmethyl)sulfonyl]-1-{[4-(1,1,1,3,3,3-hexafluoro-2-hydroxypropan-2-yl)phenyl]carbamoyl}-1,3-dihydro-2H-isoindole-2-carboxylate]",7.94 nM
4,"O=C(Nc1ccc(C(O)(C(F)(F)F)C(F)(F)F)cc1)C1c2ccc(S(=O)(=O)CC3CC3)cc2CN1C(=O)C(F)(F)C1CC1 (centres unmarked) [Example 214, 2-[Cyclopropyl(difluoro)acetyl]-5-[(cyclopropylmethyl)sulfonyl]-N-[4-(1,1,1,3,3,3-hexafluoro-2-hydroxypropan-2-yl)phenyl]-2,3-dihydro-1H-isoindole-1-carboxamide]",10 nM
5,"CNS(=O)(=O)c1ccc2c(c1)CNC2C(=O)Nc1ccc(C(O)(C(F)(F)F)C(F)(F)F)cc1 (centres unmarked) [Example 300, N-[4-(1,1,1,3,3,3-hexafluoro-2-hydroxypropan-2-yl)phenyl]-5-(methylsulfamoyl)-2,3-dihydro-1H-isoindole-1-carboxamide]",25.1 nM
6,"CNS(=O)(=O)c1ccc2c(c1)CN(C(=O)OC)C2C(=O)Nc1ccc(C(O)(C(F)(F)F)C(F)(F)F)cc1 (centres unmarked) [Example 304, Methyl 1-{[4-(1,1,1,3,3,3-hexafluoro-2-hydroxypropan-2-yl)phenyl]carbamoyl}-5-(methylsulfamoyl)-1,3-dihydro-2H-isoindole-2-carboxylate]",12.6 nM
7,"CCOC(=O)N1Cc2cc(S(=O)(=O)NC)ccc2C1C(=O)Nc1ccc(C(O)(C(F)(F)F)C(F)(F)F)cc1 (centres unmarked) [Example 305, Ethyl 1-{[4-(1,1,1,3,3,3-hexafluoro-2-hydroxypropan-2-yl)phenyl]carbamoyl}-5-(methylsulfamoyl)-1,3-dihydro-2H-isoindole-2-carboxylate]",10 nM
8,"CNS(=O)(=O)c1ccc2c(c1)CN(C(=O)C1(OC)CC1)C2C(=O)Nc1ccc(C(O)(C(F)(F)F)C(F)(F)F)cc1 (centres unmarked) [Example 306, N-[4-(1,1,1,3,3,3-Hexafluoro-2-hydroxypropan-2-yl)phenyl]-2-[(1-methoxycyclopropyl)carbonyl]-5-(methylsulfamoyl)-2,3-dihydro-1H-isoindole-1-carboxamide]",20 nM
9,"CNS(=O)(=O)c1ccc2c(c1)CN(C(=O)COC)C2C(=O)Nc1ccc(C(O)(C(F)(F)F)C(F)(F)F)cc1 (centres unmarked) [Example 308, N-[4-(1,1,1,3,3,3-Hexafluoro-2-hydroxypropan-2-yl)phenyl]-2-(methoxyacetyl)-5-(methylsulfamoyl)-2,3-dihydro-1H-isoindole-1-carboxamide]",31.6 nM
10,"CNS(=O)(=O)c1ccc2c(c1)CN(C(=O)[C@H]1CCCO1)C2C(=O)Nc1ccc(C(O)(C(F)(F)F)C(F)(F)F)cc1 (stereo partly drawn) [Example 310, N-[4-(1,1,1,3,3,3-Hexafluoro-2-hydroxypropan-2-yl)phenyl]-5-(methylsulfamoyl)-2-[(2R)-tetrahydrofuran-2-ylcarbonyl]-2,3-dihydro-1H-isoindole-1-carboxamide]",31.6 nM
11,"CNS(=O)(=O)c1ccc2c(c1)CN(C(=O)[C@@H]1CCCO1)C2C(=O)Nc1ccc(C(O)(C(F)(F)F)C(F)(F)F)cc1 (stereo partly drawn) [Example 311, N-[4-(1,1,1,3,3,3-Hexafluoro-2-hydroxypropan-2-yl)phenyl]-5-(methylsulfamoyl)-2-[(2S)-tetrahydrofuran-2-ylcarbonyl]-2,3-dihydro-1H-isoindole-1-carboxamide]",31.6 nM
12,"CCC(OC)C(=O)N1Cc2cc(S(=O)(=O)NC)ccc2C1C(=O)Nc1ccc(C(O)(C(F)(F)F)C(F)(F)F)cc1 (centres unmarked) [Example 312, N-[4-(1,1,1,3,3,3-Hexafluoro-2-hydroxypropan-2-yl)phenyl]-2-(2-methoxybutanoyl)-5-(methylsulfamoyl)-2,3-dihydro-1H-isoindole-1-carboxamide]",39.8 nM
13,"CNS(=O)(=O)c1ccc2c(c1)CN(C(=O)CO)C2C(=O)Nc1ccc(C(O)(C(F)(F)F)C(F)(F)F)cc1 (centres unmarked) [Example 313, N-[4-(1,1,1,3,3,3-Hexafluoro-2-hydroxypropan-2-yl)phenyl]-2-(hydroxyacetyl)-5-(methylsulfamoyl)-2,3-dihydro-1H-isoindole-1-carboxamide]",100 nM
14,CNC(=O)N1Cc2cc(S(=O)(=O)NC)ccc2C1C(=O)Nc1ccc(C(O)(C(F)(F)F)C(F)(F)F)cc1 (centres unmarked) [Example 314],63.1 nM
15,"CS(=O)(=O)c1ccc2c(c1)CN(C(=O)Cc1ccccc1)C2C(=O)Nc1ccc(C(O)(C(F)(F)F)C(F)(F)F)cc1 (centres unmarked) [Example 402, N-[4-(1,1,1,3,3,3-Hexafluoro-2-hydroxypropan-2-yl)phenyl]-5-(methylsulfonyl)-2-(phenylacetyl)-2,3-dihydro-1H-isoindole-1-carboxamide]",12.6 nM
16,"CC(CF)C(=O)N1Cc2cc(S(C)(=O)=O)ccc2C1C(=O)Nc1ccc(C(O)(C(F)(F)F)C(F)(F)F)cc1 (centres unmarked) [Example 408, 2-(3-Fluoro-2-methylpropanoyl)-N-[4-(1,1,1,3,3,3-hexafluoro-2-hydroxypropan-2-yl)phenyl]-5-(methylsulfonyl)-2,3-dihydro-1H-isoindole-1-carboxamide]",12.6 nM
17,"CC(C)CC(=O)N1Cc2cc(S(C)(=O)=O)ccc2C1C(=O)Nc1ccc(C(O)(C(F)(F)F)C(F)(F)F)cc1 (centres unmarked) [Example 410, N-[4-(1,1,1,3,3,3-Hexafluoro-2-hydroxypropan-2-yl)phenyl]-2-(3-methylbutanoyl)-5-(methylsulfonyl)-2,3-dihydro-1H-isoindole-1-carboxamide]",20 nM
18,"CS(=O)(=O)c1ccc2c(c1)CN(C(=O)CC1CC1)C2C(=O)Nc1ccc(C(O)(C(F)(F)F)C(F)(F)F)cc1 (centres unmarked) [Example 411, 2-(Cyclopropylacetyl)-N-[4-(1,1,1,3,3,3-hexafluoro-2-hydroxypropan-2-yl)phenyl]-5-(methylsulfonyl)-2,3-dihydro-1H-isoindole-1-carboxamide]",25.1 nM
19,"CS(=O)(=O)c1ccc2c(c1)CN(C(=O)CC1(O)CC1)C2C(=O)Nc1ccc(C(O)(C(F)(F)F)C(F)(F)F)cc1 (centres unmarked) [Example 412, N-[4-(1,1,1,3,3,3-Hexafluoro-2-hydroxypropan-2-yl)phenyl]-2-[(1-hydroxycyclopropyl)acetyl]-5-(methylsulfonyl)-2,3-dihydro-1H-isoindole-1-carboxamide]",25.1 nM
20,"C[C@H](F)CC(=O)N1Cc2cc(S(C)(=O)=O)ccc2C1C(=O)Nc1ccc(C(O)(C(F)(F)F)C(F)(F)F)cc1 (stereo partly drawn) [Example 413, 2-[(3S)-3-Fluorobutanoyl]-N-[4-(1,1,1,3,3,3-hexafluoro-2-hydroxypropan-2-yl)phenyl]-5-(methylsulfonyl)-2,3-dihydro-1H-isoindole-1-carboxamide]",31.6 nM
